The conditions of data set [1]: intranasal; cited from earlier work.
Another data set has as its system motor function of mice. Description: horizontal screen test (motor impairment). In kind it is in vivo. To be noted: for animals that fell from the grid: intranasal 1 mg/kg; for motor function in the horizontal screen test, in words: intranasal, doses with comparable antiseizure activity. How it is done: At various times after intranasal administration, mice were placed on a horizontally oriented grid (consisting of parallel 1.5-mm diameter rods situated 1 cm apart) for 2-3 s and the grid was inverted and held approximately 30-40 cm above a padded surface for a maximum of 60 s. If the animal fell from the grid, the latency from the time of inversion to the time of fall was recorded.

Data set [2] has as its system PTZ-induced seizures (seizure threshold). In words: timed intravenous PTZ seizure threshold test. In kind it is in vivo, mice. The settings on record: for elevation in thresholds to the three seizure endpoints: intranasal 1 mg/kg, compared with allopregnanolone 16 mg/kg; for effect on seizure threshold parameters: Example 2. How it is done: (§1) The thresholds for various behavioral seizure stages induced by the PTZ and bicuculine were determined by infusing the convulsant drugs via a 27-gauge, 0.75-inch “butterfly” needle inserted into the lateral tail vein. PTZ (10 mg/ml) and bicuculline (0.1 mg/ml) were infused IV at a constant rate of 0.5 ml/min using a 5-ml syringe (BD Biosciences, Franklin Lakes, N.J.) mounted on an infusion pump (Model ‘11’ Plus Syringe Pump; Harvard Apparatus, Holliston, Mass.). The syringe was connected to the needle by polyethylene tubing. The infusion was stopped at 3 min or at the onset of tonic extension, whichever occurred first. The time to occurrence (“infusion duration”) to the following endpoints from the start of the convulsant infusion were determined: (1) the first myoclonic jerk; (2) the onset of generalized clonus; and (3) the onset of tonic extension. Infusion duration values represent the time from the start of the convulsant infusion to the onset of the endpoint. The threshold value (mg/kg) for each endpoint was determined according to the following formula: (infusion duration [s]×infusion rate [ml/min]×convulant concentration [10 mg/ml or 0.1 mg/ml]×1000)/(60 s×body weight of mouse [g]).

Data set [3] is described as follows: brain region pharmacokinetics after intranasal dosing.
For data set [4] the following is noted: cited from earlier work.
The nature of data set [5]: plasma pharmacokinetics after intranasal or intramuscular dosing. How it is done:
Allopregnanolone (16 mg/mL in 40% Captisol® in 0.9% saline) was administered intranasally at a total dose of 10 mg/kg. 2-3 microliters of solution was administered 3-5 times to each nostril (6-10 times total) over a period of 3.5 min. Allopregnanolone (6 mg/mL in 24% Captisol® in 0.9% saline) was administered intramuscularly at a total dose of 12 mg/kg. Time course of plasma levels of allopregnanolone following intranasal allopregnanolone (10 mg/kg) and intramuscular allopregnanolone (12 mg/kg) was monitored. At various times after administration, trunk blood was collected in chilled heparinized tubes. In some cases, blood was collected by retro-orbital puncture. Plasma was separated and assayed for allopregnanolone as described in Zolkowska D. et al., Epilepsia 2018 October; 59 Suppl 2:220-227.
At various times after intranasal administration, trunk blood samples were collected into chilled tubes. Brains were removed, separated into 3 sections (olfactory bulb, forebrain with midbrain, cerebellum with attached pons and medulla) and fast-frozen on dry ice. Blood was centrifuged at 1500 RCF for 10 min to separate the plasma. Brain and plasma samples were stored at −80° C. until processing. Plasma and brain samples were analyzed for allopregnanolone as described in Zolkowska et al (2018). The lower limit of quantification in plasma is 2.5 ng/ml.

The conditions of data set [6]: even when solubilized with sulfobutyl ether β-cyclodextrin, sodium salt; cited from earlier work.
For data set [7] the following is noted: human; cited from earlier work.
Data set [8] deals with bicuculline-induced seizures (seizure threshold). Description: intravenous bicuculline threshold test. To be noted: intranasal 16 mg/kg; 10 min. Format: in vivo, mice. On the procedure: as §1
Another data set has as its system PTZ-induced seizures. Description: maximal PTZ seizure test. Format: in vivo, mice. How it is done:
Solutions of allopregnanolone (5α,3α-P) (15 mg/ml) were prepared in 40% sulfobutylether-β-cyclodextrin sodium salt in 0.9% saline. Seizures were induced in mice with pentylenetetrazol (PTZ; […] IP). 5α,3α-P solution (6 and 10 mg/kg) or vehicle was administered intranasally 5, 10 and 15 min prior to administration of the PTZ. […] The times to onset of myoclonic body twitches and clonic and tonic seizures were recorded. 5α,3α-P was considered to have antiseizure activity if it delayed the onset of seizure signs in comparison with the time of their occurrence in vehicle-treated animals.
The times to occurrence of the 3 seizure signs as in the timed intravenous PTZ seizure test were recorded. Allopregnanolone (10 mg/kg) or vehicle was administered intranasally 10 min prior to the PTZ injection.

The test system of another data set is righting reflex of mice. In words: loss of righting reflex test. To be noted: for loss of righting reflex (sedation), in words: 10 min to 30 min after administration. In kind it is in vivo. How it is done: Time course of loss of righting reflex following intranasal allopregnanolone (16 mg/kg) and intramuscular allopregnanolone (16 mg/kg). Loss of righting reflex is a nonnoxious behavioral paradigm that indicates loss of consciousness (hypnosis). […] Intranasal delivery of alloprepregnanolone according to the methods described herein avoids the adverse effects on behavior associated with intramuscular bolus administration.
For the test, the mouse was placed on its back on a tabletop.

Setting [9] is: mouse, olfactory bulb, inhaled or intranasal, 10 mg/kg.
The mark [10] stands for this setting: mouse, plasma, inhaled or intranasal, 10 mg/kg.
Setting [11] is: intranasal 16 mg/kg, 10 min after dosing.
Setting [12] is: intranasal 10 mg/kg, 10 min before PTZ 80 mg/kg IP.

Molecules are shown by their SMILES. “Also recorded” adds a separate entry of the source. Where two headings read alike, the source gives them in different places. Bounds are passed on as bounds.

Turning to `CC1(C)O[C@@H]2C[C@H]3[C@@H]4C[C@H](F)C5=CC(=O)C=C[C@]5(C)[C@H]4[C@@H](O)C[C@]3(C)[C@]2(C(=O)CO)O1` [flunisolide], the systemic availability entry in data set [1] is “substantial”.

On to `CCC(=O)O[C@]1(C(=O)SCF)[C@H](C)C[C@H]2[C@@H]3C[C@H](F)C4=CC(=O)C=C[C@]4(C)[C@@]3(F)[C@@H](O)C[C@@]21C` [fluticasone propionate], for which, in data set [1], the systemic availability entry is given as “negligible”.

Turning to `Cc1ncc2n1-c1ccc(Cl)cc1C(c1ccccc1F)=NC2` [midazolam], in the data set with motor function of mice, the “animals that fell from the grid” value was “all” and the “motor function in the horizontal screen test, in words” value (“motor function” for short) is reported as “dramatically impair motor function”. In data set [2], the “elevation in thresholds to the three seizure endpoints” value was “comparable elevations”.

For orientation: Cmax means the highest concentration seen after dosing. For orientation: Tmax means the time at which the peak concentration occurs. In general, half-life refers to how long it takes for the measured level to halve. For `CC(=O)[C@H]1CC[C@H]2[C@@H]3CC[C@H]4C[C@H](O)CC[C@]4(C)[C@H]3CC[C@]12C` [allopregnanolone, 3α-hydroxy-5α-pregnan-20-one], the “olfactory bulb levels compared with plasma levels” value in [3] (intranasal) is listed as “substantially higher than the plasma levels”. Besides, in data set [3] (intranasal 16 mg/kg, mean of 1, 2, 5 and 10 min), the “olfactory bulb concentration relative to whole brain” value is given as 10 fold. Further, the Cmax in data set [3] (mouse, forebrain, cerebellum, inhaled or intranasal, 10 mg/kg) is 600 to 700 ng/g; in [3] (setting [9]), 16000 ng/g; in [5] (setting [10]), 3500 ng/mL. Moreover, the time to peak (Tmax) in [3] (setting [9]) is 1 min; in data set [4] (intramuscular), 60 min; in data set [5] (setting [10]), 1 min. Moreover, the “dose adjusted Cmax” value in [4] (intramuscular, prior study) is 2150 ng/mL. The “plasma concentration half-time (t1/2)” value in [4] (mice) is 16 min. Besides, the “animals that did not fall from the grid” value in the data set on motor function of mice (intranasal 16 mg/kg) is reported as 5 of 8. For the same compound, the “area under mean holding time versus time curve, compared with untreated (naive) animals” value with motor function of mice (intranasal 16 mg/kg) is “not significantly different”. The “motor function” value in the data set with motor function of mice is listed as “fails to cause substantial sedation or motor impairment”. For the same compound, in data set [5] (intramuscular), the “time therapeutic levels are maintained” value is listed as “about 2 hours”. For the same compound, the “time by which plasma levels taper off” value in data set [5] (intramuscular 12 mg/kg) was “about 4 hours”. Moreover, the “time therapeutically meaningful blood levels are maintained” value in [5] (intranasal) was “up to 8 hours”. Further, the “time plasma levels are sustained” value in data set [5] (intranasal 10 mg/kg) is given as “up to 8 hours”. Besides, in [5] (intranasal 10 mg/kg, likely value), the “true Cmax (time)” value is < 5 min. The half-life in [5] (mouse, plasma, inhaled or intranasal, 10 mg/kg, plasma initial phase t1/2, intranasal 10 mg/kg, first 15 min) came out at 4.9 min; in data set [5] (mouse, plasma, inhaled or intranasal, 10 mg/kg, plasma t1/2 (overall curve), intranasal 10 mg/kg) it was 49 min. Besides, the oral bioavailability entry in data set [6] is “not orally bioavailable”. Besides, the t1/2 in [7] is on record as 35 min. Also, the “effect on seizure threshold parameters” value in [2] (intranasal 16 mg/kg, 10 minutes) was “large and statistically significant increase”; in data set [2] (intranasal 16 mg/kg, 1 hour) it was “diminishes”; in data set [2] (intranasal 16 mg/kg, 8 hours), “absent; also recorded: no substantial elevation”. In data set [2] (intranasal 16 mg/kg, 10 min), the “change in tonic extension threshold versus vehicle” value is listed as “statistically significant increase”. Also, the “ratio of mean threshold values, drug to vehicle: clonus” value in data set [2] (setting [11]) is 1.4. Moreover, the “ratio of mean threshold values, drug to vehicle: myoclonic twitch” value in [2] (setting [11]) worked out at 1.3. In addition, the “ratio of mean threshold values, drug to vehicle: tonic extension” value in data set [2] (setting [11]) is reported as 2.7. The “ratio of mean thresholds, drug to vehicle: tonic extension” value was 5.3 in data set [2] (intranasal 16 mg/kg, 15 min (maximum elevation)); 1.3 in data set [2] (intranasal 16 mg/kg, 60 min); 1.1 in data set [2] (intranasal 16 mg/kg, 360 min). Moreover, the “ratio of threshold, drug to vehicle: tonic extension” value in data set [8] was 1.5. Moreover, the “delay in seizure signs” value in the data set on PTZ-induced seizures (Example 1, administered 15 min before PTZ, compared with 5 min) is reported as “less active”. In the data set on PTZ-induced seizures (Example 1, intranasal 6 mg/kg), the “effect on time to onset of seizure signs” value is reported as “delayed the time to onset of all seizure signs”. Also, in the data set on PTZ-induced seizures (Example 1, intranasal 10 mg/kg), the “protection from tonic hind limb extension and mortality” value was “some animals were protected”. The “ratio of latencies, drug to vehicle: clonus” value in the data set with PTZ-induced seizures (setting [12]) was determined as 1.5. Also, the “ratio of latencies, drug to vehicle: myoclonic twitch” value in the data set on PTZ-induced seizures (setting [12]) is on record as 1.3. In the data set on PTZ-induced seizures (setting [12]), the “ratio of latencies, drug to vehicle: tonic extension” value was 4.4. In addition, in the data set on PTZ-induced seizures (intranasal 10 mg/kg, of the 14 animals tested), the “animals that failed to exhibit tonic extension” value amounted to 5. The “animals exhibiting loss of righting reflex” value with righting reflex of mice (intramuscular 16 mg/kg) was 9 of 10; in the data set on righting reflex of mice (intranasal 16 mg/kg, 60 min observation), 2 of 25. Besides, the “loss of righting reflex (sedation), in words” value was “substantial loss of righting reflex; also recorded: profound sedation” in the data set with righting reflex of mice (intramuscular 16 mg/kg) and “loss of righting reflex in a high proportion of mice” in the data set with righting reflex of mice (intramuscular 16 mg/kg, listed as Allopregnanolone). Moreover, the “loss of righting reflex (sedation/general anesthesia), in words” value with righting reflex of mice (intranasal 16 mg/kg) is on record as “not associated with substantial sedation/general anesthesia; also recorded: only minimal loss of righting reflex”; with righting reflex of mice (intranasal 16 mg/kg, listed as Allopregnanolone), “loss of righting reflex in only a small proportion of animal”.

Consider `CN1C(=O)CN=C(c2ccccc2)c2cc(Cl)ccc21` [diazepam], for which, in the data set on motor function of mice, the “animals that fell from the grid” value is listed as “all” and the “motor function” value is “dramatically impair motor function”. Moreover, in data set [2], the “elevation in thresholds to the three seizure endpoints” value is “comparable elevations”.

Values taken from patent publication US20220202832A1, “ALLOPREGNANOLONE COMPOSITIONS AND USES THEREOF” (The Regents of the University of California, priority 2019, published 2022).
